Measured values published in patent US10206907B2, “Compounds useful for the treatment of degenerative and inflammatory diseases” (GALAPAGOS NV, priority 2008, dated 2019).

What was measured:
[1] = biological target: Recombinant human JAK1 catalytic domain (Homo sapiens (Human), UniProt P23458); assay: JAK1 inhibition assay; format: biochemical; conditions: semi-quantitative score
In short: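 IC50 values come from dose-response series, with each point expressed as percent inhibition of cpm. Vehicle sets full activity and 10 μM staurosporine sets background. Incorporated radioactivity counted by scintillation after washing with 75 mM phosphoric acid.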

[2] = biological target: Recombinant human JAK2 catalytic domain (Homo sapiens (Human), UniProt O60674); assay: JAK2 inhibition assay; format: biochemical; conditions: semi-quantitative score
Protocol: After 90 min at 30° C., reactions were stopped by adding of 25 μL/well of 150 mM phosphoric acid. […] Plates were washed 6 times with 300 μL per well of a 75 mM phosphoric acid solution and the bottom of the plates was sealed. 40 μL/well of Microscint-20 was added, the top of the plates was sealed and readout was performed using the Topcount (Perkin Elmer). Kinase activity was calculated by subtracting counts per minute (cpm) obtained in the presence of a positive control inhibitor (10 μM staurosporine) from cpm obtained in the presence of vehicle. The ability of a test compound to inhibit this activity was determined as: Percentage inhibition=((cpm determined for sample with test compound present−cpm determined for sample with positive control inhibitor) divided by (cpm determined in the presence of vehicle−cpm determined for sample with positive control inhibitor))*100%.
Dose dilution series were prepared for the compounds enabling the testing of dose-response effects in the JAK2 assay and the calculation of the IC50 for each compound.

Chain of Recombinant human JAK1 catalytic domain (P23458 850-1154): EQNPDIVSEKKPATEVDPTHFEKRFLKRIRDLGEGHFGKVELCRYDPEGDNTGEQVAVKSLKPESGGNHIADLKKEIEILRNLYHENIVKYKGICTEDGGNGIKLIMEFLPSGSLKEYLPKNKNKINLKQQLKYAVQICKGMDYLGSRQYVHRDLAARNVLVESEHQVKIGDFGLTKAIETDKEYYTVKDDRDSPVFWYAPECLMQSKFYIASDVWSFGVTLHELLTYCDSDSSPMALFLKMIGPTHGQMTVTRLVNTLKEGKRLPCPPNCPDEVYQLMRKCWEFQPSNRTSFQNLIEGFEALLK
Chain of Recombinant human JAK2 catalytic domain (O60674 808-1132): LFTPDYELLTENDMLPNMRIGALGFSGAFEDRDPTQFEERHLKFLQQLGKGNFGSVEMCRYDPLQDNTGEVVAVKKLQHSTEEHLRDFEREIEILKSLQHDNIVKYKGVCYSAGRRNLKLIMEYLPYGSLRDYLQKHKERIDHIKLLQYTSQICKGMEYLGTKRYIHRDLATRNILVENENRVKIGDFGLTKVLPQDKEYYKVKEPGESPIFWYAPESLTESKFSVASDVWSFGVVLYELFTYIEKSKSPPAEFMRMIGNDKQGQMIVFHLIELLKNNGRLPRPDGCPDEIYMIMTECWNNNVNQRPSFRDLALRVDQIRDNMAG

| IC50 [1] | IC50 [2] | Compound |
| --- | --- | --- |
| 101 to 500 nM | > 1000 nM | CCOC1CCN(C(=O)c2ccc(-c3cccc4nc(NC(=O)C5CC5)nn34)cc2)CC1 [Compound 294, Cyclopropanecarboxylic acid {5-[4-(4-ethoxy-piperidine-1-carbonyl)-phenyl]-[1,2,4]triazolo[1,5-a]pyridin-2-yl}-amide] |
| 101 to 500 nM | > 1000 nM | CCOC1CCN(Cc2ccc(-c3cccc4nc(NC(=O)C5CC5)nn34)cc2)CC1 [Compound 282, Cyclopropanecarboxylic acid {5-[4-(4-ethoxy-piperidin-1-ylmethyl)-phenyl]-[1,2,4]triazolo[1,5-a]pyridin-2-yl}-amide] |
| > 1000 nM | > 1000 nM | CC(=O)NC1CN(C(=O)Cc2ccc(-c3cccc4nc(NC(=O)C5CC5)nn34)cc2)C1 [Compound 322, Cyclopropanecarboxylic acid (5-{4-[2-(3-acetylamino-azetidin-1-yl)-2-oxo-ethyl]-phenyl}-[1,2,4]triazolo[1,5-a]pyridin-2-yl)-amide] |
| 501 to 1000 nM | > 1000 nM | CN(C)C(=O)C1CN(Cc2ccc(-c3cccc4nc(NC(=O)C5CC5)nn34)cc2)C1 [Compound 299, 1-{4-[2-(Cyclopropanecarbonyl-amino)-[1,2,4]triazolo[1,5-a]pyridin-5-yl]-benzyl}-azetidine-3-carboxylic acid dimethylamide] |
| 101 to 500 nM | 101 to 500 nM | CC1(C)COCCN1C(=O)c1ccc(-c2cccc3nc(NC(=O)C4CC4)nn23)cc1 [Compound 216, Cyclopropanecarboxylic acid {5-[4-(3,3-dimethyl-morpholine-4-carbonyl)-phenyl]-[1,2,4]triazolo[1,5-a]pyridin-2-yl}-amide] |
| 101 to 500 nM | 501 to 1000 nM | O=C(Nc1nc2cccc(-c3ccc(CNc4ccc(N5CCOCC5)nc4)cc3)n2n1)C1CC1 [Compound 237, Cyclopropanecarboxylic acid (5-{4-[(6-morpholin-4-yl-pyridin-3-ylamino)-methyl]-phenyl}-[1,2,4]triazolo[1,5-a]pyridin-2-yl)-amide] |
| > 1000 nM | > 1000 nM | O=C(Nc1nc2cccc(-c3ccc(C(=O)N4CCC(C(=O)N5CCOCC5)CC4)cc3)n2n1)C1CC1 [Compound 219, Cyclopropanecarboxylic acid (5-{4-[4-(morpholine-4-carbony)-piperidine-1-carbonyl]-phenyl}-[1,2,4]triazolo[1,5-a]pyridin-2-yl)-amide] |
| 101 to 500 nM | 501 to 1000 nM | O=C(Nc1nc2cccc(-c3ccc(CNC(=O)N4CCOCC4)cc3)n2n1)C1CC1 [Compound 309, Morpholine-4-carboxylic acid 4-[2-(cyclopropanecarbonyl-amino)-[1,2,4]triazolo[1,5-a]pyridin-5-yl]-benzylamide] |
| 101 to 500 nM | 101 to 500 nM | O=C(Nc1nc2cccc(-c3ccc(CNc4cc(C(F)(F)F)ccc4F)cc3)n2n1)C1CC1 [Compound 248, Cyclopropanecarboxylic acid (5-{4-[(2-fluoro-5-trifluoromethyl-phenylamino)-methyl]-phenyl}-[1,2,4]triazolo[1,5-a]pyridin-2-yl)-amide] |
| 101 to 500 nM | 101 to 500 nM | O=C(Nc1nc2cccc(-c3ccc(CNC4CC4)cc3)n2n1)C1CC1 [Compound 312, Cyclopropanecarboxylic acid [5-(4-cyclopropylaminomethyl-phenyl)-[1,2,4]triazolo[1,5-a]pyridin-2-yl]-amide] |
| > 1000 nM | > 1000 nM | O=C(Nc1nc2cccc(-c3ccc(CN4CC(N5CCOCC5)C4)cc3)n2n1)C1CC1 [Compound 300, Cyclopropanecarboxylic acid {5-[4-(3-morpholin-4-yl-azetidin-1-ylmethyl)-phenyl]-[1,2,4]triazolo[1,5-a]pyridin-2-yl}-amide] |
| 101 to 500 nM | 101 to 500 nM | Cn1nc(C2CC2)cc1NC(=O)c1ccc(-c2cccc3nc(NC(=O)C4CC4)nn23)cc1 [Compound 218, 4-[2-(Cyclopropanecarbonyl-amino)-[1,2,4]triazolo[1,5-a]pyridin-5-yl]-N-(5-cyclopropyl-2-methyl-2H-pyrazol-3-yl)-benzamide] |
